Our source for the melting point values is patent US6951876B2, “Sulfamoylheteroaryl pyrazole compounds as anti-inflammatory/analgesic agents” (Pfizer, Inc., priority 1999, dated 2005).

Counter-ions that a name gives are not always drawn.

For the molecule `NS(=O)(=O)c1ccc(-n2nc(C(F)(F)F)c(Cl)c2-c2ccc(-c3cncs3)c(Cl)c2)cn1` (as salt: methanesulfonate) [Example 16, 5-[4-Chloro-5-[3-chloro-4-(1,3-thiazol-5-yl)phenyl]-3-trifluoromethyl-1H-pyrazol-1-yl]-2-pyridinesulfonamide], the melting point fell in the range of 191 to 193 °C.
`CCc1c(-c2ccc(-c3cscn3)cc2)c(C(F)(F)F)nn1-c1ccc(S(N)(=O)=O)nc1.Cl` yielded a melting point of 141 °C.
The figure for `Cl.NS(=O)(=O)c1ccc(-n2nc(C(F)(F)F)cc2-c2ccc(-c3cscn3)cc2)cn1` is 121 °C; for `NS(=O)(=O)c1ccc(-n2nc(C(F)(F)F)cc2-c2ccc(-c3ccco3)cc2)cn1` (as salt: hydrochloride) [Example 2, 5-[5-[4-(2-Furyl)phenyl]-3-(trifluoromethyl)-1H-pyrazol-1-yl]-2-pyridinesulfonamide] it is 140 to 170 °C; for `Cl.NS(=O)(=O)c1ccc(-n2nc(C(F)(F)F)c(F)c2-c2ccc(-c3cscn3)cc2)cn1` it is 145 °C.
Turning to `Cl.NS(=O)(=O)c1ccc(-n2nc(C(F)(F)F)c(Cl)c2-c2ccc(-c3cscn3)cc2)cn1`, the melting point was 157 °C.
Take `NS(=O)(=O)c1ccc(-n2nc(C(F)(F)F)cc2-c2ccc(-c3ncco3)c(Cl)c2)cn1` (as salt: hydrochloride) [Example 3, 5-[5-[3-Chloro-4-(1,3-oxazol-2-yl)phenyl]-3-(trifluoromethyl)-1H-pyrazol-1-yl]-2-pyridinesulfonamide]: the melting point was determined as 156 °C.
The same measure for `Cl.NS(=O)(=O)c1ccc(-n2nc(C(F)(F)F)cc2-c2ccc(-c3cncs3)cc2)cn1`: 138 °C; for `CCc1c(C(F)(F)F)nn(-c2ccc(S(N)(=O)=O)nc2)c1-c1ccc(-c2cncs2)cc1.Cl`: 169 °C.
`NS(=O)(=O)c1ccc(-n2nc(C(F)(F)F)cc2-c2ccc(-c3cscn3)c(C(F)(F)F)c2)cn1` [Example 5, 5-{5-[4-(1,3-Thiazol-4-yl)-3-(trifluoromethyl)phenyl]-3-(trifluoromethyl)-1H-pyrazol-1-yl}-2-pyridinesulfonamide] came in with a melting point of 114 °C.
Regarding `Cc1cc(-c2cc(C(F)(F)F)nn2-c2ccc(S(N)(=O)=O)cn2)ccc1-c1cscn1.Cl`, the melting point is 138 to 140 °C.
